Results reported in publication PMC10444810, “Induction of open-form bile canaliculus formation by hepatocytes for evaluation of biliary drug excretion” (Communications Biology, 2023).
Structures can show the parent of a compound that is named as a salt. Where two headings read alike, the source gives them in different places. Blank lines part the entries; values can stand above or below the compound they belong to.

Assays:
CYP1A2 = CYP1A2 (Homo sapiens, UniProt P05177)
icHep = conditions: for intracellular amount on DFP treatment: not told
BSEP [1] = test system: BSEP; design: method as in PMID 23877105; conditions: SCHs; cited from earlier work
BSEP [2] = test system: BSEP
P-gp = P-gp (Homo sapiens, UniProt P08183); conditions: two donors (HUM181001B), 1 μCi/ml, 120 min
Chain of P-gp (P08183 whole entry): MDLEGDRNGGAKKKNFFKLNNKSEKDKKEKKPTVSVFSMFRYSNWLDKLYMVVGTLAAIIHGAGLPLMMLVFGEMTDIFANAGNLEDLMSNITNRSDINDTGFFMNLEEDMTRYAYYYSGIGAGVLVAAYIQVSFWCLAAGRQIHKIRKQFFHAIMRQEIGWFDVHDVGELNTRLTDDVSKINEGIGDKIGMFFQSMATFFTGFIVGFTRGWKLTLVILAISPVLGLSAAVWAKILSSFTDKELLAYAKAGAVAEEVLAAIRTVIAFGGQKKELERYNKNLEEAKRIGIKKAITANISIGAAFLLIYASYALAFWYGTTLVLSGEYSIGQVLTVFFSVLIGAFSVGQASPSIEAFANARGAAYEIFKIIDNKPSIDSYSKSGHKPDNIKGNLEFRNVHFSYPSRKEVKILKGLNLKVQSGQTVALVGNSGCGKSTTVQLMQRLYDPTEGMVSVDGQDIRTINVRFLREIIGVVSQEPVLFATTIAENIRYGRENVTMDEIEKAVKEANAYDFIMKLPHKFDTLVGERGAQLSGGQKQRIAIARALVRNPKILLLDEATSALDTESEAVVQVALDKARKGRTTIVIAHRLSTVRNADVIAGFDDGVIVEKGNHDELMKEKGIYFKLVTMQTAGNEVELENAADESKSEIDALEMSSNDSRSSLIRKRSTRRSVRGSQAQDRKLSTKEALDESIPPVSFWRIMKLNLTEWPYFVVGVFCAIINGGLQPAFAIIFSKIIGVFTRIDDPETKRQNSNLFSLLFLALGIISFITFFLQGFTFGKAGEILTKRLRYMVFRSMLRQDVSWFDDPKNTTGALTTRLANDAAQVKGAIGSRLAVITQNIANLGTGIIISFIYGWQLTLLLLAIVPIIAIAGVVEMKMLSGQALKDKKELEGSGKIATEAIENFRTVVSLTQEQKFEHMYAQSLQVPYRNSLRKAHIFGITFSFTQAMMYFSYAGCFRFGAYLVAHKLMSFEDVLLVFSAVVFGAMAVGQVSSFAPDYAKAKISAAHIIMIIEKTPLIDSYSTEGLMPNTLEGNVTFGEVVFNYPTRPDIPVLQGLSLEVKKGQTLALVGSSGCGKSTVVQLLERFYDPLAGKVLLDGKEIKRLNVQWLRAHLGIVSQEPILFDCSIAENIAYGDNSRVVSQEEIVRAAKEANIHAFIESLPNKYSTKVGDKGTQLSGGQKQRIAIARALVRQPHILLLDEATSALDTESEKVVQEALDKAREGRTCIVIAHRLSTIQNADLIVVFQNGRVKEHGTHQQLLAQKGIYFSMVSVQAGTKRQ

[3] = Reported human in vivo biliary excretion clearance and intrinsic clearance estimated from it (Eq. 4)
[4] = test system: sandwich-cultured PXB-cells; conditions: human, 1 μM
OATP1B1 = molecular target: T1, OATP1B1 (Homo sapiens, UniProt Q9Y6L6)
T1 sequence (Q9Y6L6 1-691): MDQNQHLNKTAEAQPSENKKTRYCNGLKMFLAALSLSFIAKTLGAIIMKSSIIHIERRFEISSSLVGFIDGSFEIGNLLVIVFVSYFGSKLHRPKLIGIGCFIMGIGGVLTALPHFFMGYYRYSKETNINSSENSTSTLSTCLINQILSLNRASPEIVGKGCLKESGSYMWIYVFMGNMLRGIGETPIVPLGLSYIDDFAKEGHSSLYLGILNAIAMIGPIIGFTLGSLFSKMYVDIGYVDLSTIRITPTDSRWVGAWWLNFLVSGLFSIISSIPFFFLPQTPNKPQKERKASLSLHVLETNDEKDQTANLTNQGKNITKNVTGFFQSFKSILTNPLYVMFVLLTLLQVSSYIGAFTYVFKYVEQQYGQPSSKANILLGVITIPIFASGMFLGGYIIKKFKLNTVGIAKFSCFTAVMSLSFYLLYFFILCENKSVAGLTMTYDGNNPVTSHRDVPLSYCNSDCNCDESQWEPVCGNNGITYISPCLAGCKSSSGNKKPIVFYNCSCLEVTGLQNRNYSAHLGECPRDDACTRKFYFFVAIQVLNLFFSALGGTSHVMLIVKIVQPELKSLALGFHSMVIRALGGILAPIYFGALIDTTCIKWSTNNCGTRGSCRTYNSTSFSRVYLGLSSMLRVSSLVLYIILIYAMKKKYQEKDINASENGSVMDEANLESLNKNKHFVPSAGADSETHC

MRP2 [5] = molecular target: T2, MRP2 (Homo sapiens, UniProt Q92887); conditions: not told
T2 sequence (Q92887 whole entry): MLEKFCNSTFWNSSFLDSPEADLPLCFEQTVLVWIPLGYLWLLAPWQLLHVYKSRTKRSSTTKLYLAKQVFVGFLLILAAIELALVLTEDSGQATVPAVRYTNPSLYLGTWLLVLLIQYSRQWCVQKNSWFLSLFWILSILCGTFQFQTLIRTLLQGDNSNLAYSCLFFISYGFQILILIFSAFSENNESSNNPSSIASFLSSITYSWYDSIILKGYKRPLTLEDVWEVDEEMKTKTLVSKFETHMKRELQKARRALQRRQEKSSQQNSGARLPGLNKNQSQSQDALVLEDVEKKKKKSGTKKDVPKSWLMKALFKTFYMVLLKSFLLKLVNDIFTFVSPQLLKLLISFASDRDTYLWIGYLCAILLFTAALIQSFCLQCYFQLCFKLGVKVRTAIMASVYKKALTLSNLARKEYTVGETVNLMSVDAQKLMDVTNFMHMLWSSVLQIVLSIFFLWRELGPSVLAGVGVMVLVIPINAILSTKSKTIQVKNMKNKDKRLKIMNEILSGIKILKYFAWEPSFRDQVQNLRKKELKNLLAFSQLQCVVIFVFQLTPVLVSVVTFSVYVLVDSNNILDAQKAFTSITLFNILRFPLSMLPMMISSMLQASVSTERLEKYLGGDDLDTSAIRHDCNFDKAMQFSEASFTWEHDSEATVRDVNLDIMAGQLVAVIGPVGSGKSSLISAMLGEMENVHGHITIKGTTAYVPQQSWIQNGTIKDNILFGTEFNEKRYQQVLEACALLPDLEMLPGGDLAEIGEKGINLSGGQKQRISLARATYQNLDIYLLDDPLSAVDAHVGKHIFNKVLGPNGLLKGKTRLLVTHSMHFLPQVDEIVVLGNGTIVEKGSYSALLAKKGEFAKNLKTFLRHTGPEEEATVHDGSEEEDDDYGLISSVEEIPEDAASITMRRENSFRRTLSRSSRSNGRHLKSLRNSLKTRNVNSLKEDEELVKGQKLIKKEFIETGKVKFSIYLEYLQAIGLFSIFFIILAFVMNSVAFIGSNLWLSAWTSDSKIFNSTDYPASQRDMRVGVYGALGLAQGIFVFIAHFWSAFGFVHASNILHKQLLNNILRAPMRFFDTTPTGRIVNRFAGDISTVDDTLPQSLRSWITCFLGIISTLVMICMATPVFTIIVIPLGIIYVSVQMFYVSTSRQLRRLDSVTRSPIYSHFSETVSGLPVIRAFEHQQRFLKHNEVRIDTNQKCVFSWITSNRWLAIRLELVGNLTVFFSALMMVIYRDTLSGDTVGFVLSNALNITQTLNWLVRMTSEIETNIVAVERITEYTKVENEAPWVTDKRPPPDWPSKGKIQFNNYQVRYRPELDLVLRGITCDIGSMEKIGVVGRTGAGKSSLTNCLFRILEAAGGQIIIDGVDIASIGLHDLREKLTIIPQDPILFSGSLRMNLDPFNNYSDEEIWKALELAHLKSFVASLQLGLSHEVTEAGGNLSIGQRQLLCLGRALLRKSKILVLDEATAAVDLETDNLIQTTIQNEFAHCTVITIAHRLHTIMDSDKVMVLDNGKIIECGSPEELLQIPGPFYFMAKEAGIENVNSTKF

[6] = cited from earlier work
[7] = human, cited from earlier work
[8] = icHep permeation assay (sinusoidal to bile side) to estimate drug biliary excretion clearance; conditions: human
[9] = cited from earlier work; for Rb: blood/plasma concentration ratio
in vitro = conditions: human, Biliary excretion clearance, observed, CLbile, int
MRP2 [10] = molecular target: T2, MRP2; assay: MRP2-mediated biliary transport of CDF (CDFDA permeation assay); conditions: benzbromarone 100 μM, icHep
BSEP [11] = conditions: cited from earlier work
[12] = estimated from observed CLbile with fp, Rb, Qh 1400 ml/min
[13] = estimated from observed in vivo CLbile with fp, Rb and Qh 1400 ml/min
[14] = unbound fraction of the plasma protein
[15] = unbound fraction, reported value
[16] = reported in vivo biliary excretion clearance
[17] = Biliary excretion clearance, in vitro, observed, CLbile, int, icHep (HUM181001B), CLbile,app of icHep minus control cells

Chain of CYP1A2 (P05177 whole entry): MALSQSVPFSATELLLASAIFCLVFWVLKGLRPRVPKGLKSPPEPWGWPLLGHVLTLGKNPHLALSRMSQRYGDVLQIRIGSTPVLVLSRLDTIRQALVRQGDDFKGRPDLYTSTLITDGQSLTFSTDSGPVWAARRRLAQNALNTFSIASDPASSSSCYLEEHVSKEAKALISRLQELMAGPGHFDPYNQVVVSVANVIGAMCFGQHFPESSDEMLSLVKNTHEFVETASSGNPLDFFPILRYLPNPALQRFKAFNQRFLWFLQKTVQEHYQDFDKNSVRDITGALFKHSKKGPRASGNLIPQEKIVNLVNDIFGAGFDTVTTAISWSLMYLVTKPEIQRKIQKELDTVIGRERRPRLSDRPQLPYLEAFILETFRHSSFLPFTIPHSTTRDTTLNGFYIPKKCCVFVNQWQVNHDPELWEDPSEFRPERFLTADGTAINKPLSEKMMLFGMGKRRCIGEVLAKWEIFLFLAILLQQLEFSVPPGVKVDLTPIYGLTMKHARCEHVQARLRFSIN

- Enzyme activity, Mean (CYP1A2): 0.950 pmol/min/106 cells
SMILES: CC(=O)Nc1ccc(O)cc1 [Acetaminophen]

SMILES: CCOc1nc2cccc(C(=O)O)c2n1Cc1ccc(-c2ccccc2-c2nnn[nH]2)cc1 [CAN, candesartan]
- intracellular amount on DFP treatment (icHep): decreased
- BSEP inhibition (BSEP [1]): not

SMILES: CCOc1nc2cccc(C(=O)OC(C)OC(=O)OC3CCCCC3)c2n1Cc1ccc(-c2ccccc2-c2nnn[nH]2)cc1 (stereo not drawn) [CIL, candesartan cilexetil]
- effect on biliary excretion clearance of taurocholate (BSEP [2]): decreased
- effect on biliary excretion clearance of BSEP substrate taurocholate (BSEP [2]; CIL (10 μM) alone, taurocholate 1 μM, 120 min): did not affect
- effect on intracellular accumulation of taurocholate (icHep): increased
- intracellular amount on DFP treatment (icHep): increased
- BSEP inhibition (BSEP [1]): inhibited

SMILES: C[C@H]1O[C@@H](O[C@H]2[C@@H](O)C[C@H](O[C@H]3[C@@H](O)C[C@H](O[C@H]4CC[C@@]5(C)[C@H](CC[C@@H]6[C@@H]5C[C@@H](O)[C@]5(C)[C@@H](C7=CC(=O)OC7)CC[C@]65O)C4)O[C@@H]3C)O[C@@H]2C)C[C@H](O)[C@@H]1O [Digoxin, digoxin]
- permeability to the bile side in icHep compared to the control (P-gp): significantly increased
- Observed in vivo CLbile, int [3, 12]: 154 mL/min
- Observed in vivo CLbile, int [3, 13]: 154 mL/min
- BEI (%) Mean ([4]; 2 min): 21.9%
- Predicted in vivo CLbile, int, Mean ([4]; 2 min): 703 mL/min
- BEI (%) Mean ([4]; 5 min): 28.3%
- Predicted in vivo CLbile, int, Mean ([4]; 5 min): 410 mL/min
- BEI (%) Mean ([4]; 10 min): 44.9%
- Predicted in vivo CLbile, int, Mean ([4]; 10 min): 439 mL/min
- BEI (%) Mean ([4]; 20 min): 37.1%
- Predicted in vivo CLbile, int, Mean ([4]; 20 min): 152 mL/min

- difference in OATP1B1 substrate uptake clearance between two donors (OATP1B1): 2.85 fold
- permeability to the bile side in icHep compared to the control (MRP2 [5]): significantly increased
SMILES: C[C@]12CC[C@@H]3c4ccc(O)cc4CC[C@H]3[C@@H]1CC[C@@H]2O[C@@H]1O[C@H](C(=O)O)[C@@H](O)[C@H](O)[C@H]1O [E217βG]

SMILES: CCOc1ccc2ccccc2c1C(=O)N[C@@H]1C(=O)N2[C@@H]1SC(C)(C)[C@@H]2C(=O)O [Nafcillin, nafcillin]
- Observed in vivo CLbile, int [3, 12]: 1213 mL/min
- Observed in vivo CLbile, int [3, 13]: 1213 mL/min
- fp, unbound fraction of the plasma protein ([6]; reported value): 0.123[43]
- fp [6, 14]: 0.123
- fp [6, 15]: 0.123
- Observed in vivo CLbile [7, 16]: 125 mL/min
- Observed in vivo CLbile ([7]; reported value): 125 mL/min
- hepatocyte CLint at 1 μM [8, 17]: 1.07 ± 0.14 µL/min/1e6 cells
- Rb ([9]; reported value): 0.55
- Rb [9]: 0.55
- Rb, blood/plasma concentration ratio ([9]; reported value): 0.55[43]
- hepatocyte CLint at 1 μM (in vitro): 2.22 ± 1.01 µL/min/1e6 cells
- BEI (%) Mean ([4]; 2 min): 57.4%
- Predicted in vivo CLbile, int, Mean ([4]; 2 min): 3401 mL/min
- BEI (%) Mean ([4]; 5 min): 42.7%
- Predicted in vivo CLbile, int, Mean ([4]; 5 min): 1026 mL/min
- BEI (%) Mean ([4]; 10 min): 40.6%
- Predicted in vivo CLbile, int, Mean ([4]; 10 min): 340 mL/min
- BEI (%) Mean ([4]; 20 min): 70.9%
- Predicted in vivo CLbile, int, Mean ([4]; 20 min): 608 mL/min

SMILES: CC[C@]1(O)C[C@H]2CN(CCc3c([nH]c4ccccc34)[C@@](C(=O)OC)(c3cc4c(cc3OC)N(C=O)[C@H]3[C@@](O)(C(=O)OC)[C@H](OC(C)=O)[C@]5(CC)C=CCN6CC[C@]43[C@@H]65)C2)C1 [Vincristine, vincristine]
- Observed in vivo CLbile, int [3, 12]: 25.5 mL/min
- Observed in vivo CLbile, int [3, 13]: 25.5 mL/min
- fp, unbound fraction of the plasma protein ([6]; reported value): 0.51[47]
- fp [6, 14]: 0.51
- fp [6, 15]: 0.51
- Observed in vivo CLbile [7, 16]: 12.9 mL/min
- Observed in vivo CLbile ([7]; reported value): 12.9 mL/min
- hepatocyte CLint at 1 μM [8]: 0.173 ± 0.052 µL/min/1e6 cells
- hepatocyte CLint at 1 μM [8, 17]: 0.128 ± 0.0438 µL/min/1e6 cells
- Rb ([9]; reported value): 1.2
- Rb [9]: 1.2
- BEI (%) Mean ([4]; 2 min): 11.7%
- Predicted in vivo CLbile, int, Mean ([4]; 2 min): 329 mL/min
- BEI (%) Mean ([4]; 5 min): 16.5%
- Predicted in vivo CLbile, int, Mean ([4]; 5 min): 199 mL/min
- BEI (%) Mean ([4]; 10 min): 26.3%
- Predicted in vivo CLbile, int, Mean ([4]; 10 min): 190 mL/min
- BEI (%) Mean ([4]; 20 min): 40.4%
- Predicted in vivo CLbile, int, Mean ([4]; 20 min): 168 mL/min

SMILES: CCc1oc2ccccc2c1C(=O)c1cc(Br)c(O)c(Br)c1 [benzbromarone]
- effect of MRP2 inhibitor on the increased appearance of CDF on the bile side (MRP2 [10]): reduced this increase to the same level as the control group

SMILES: Cc1c(C)c2c(c(C)c1OS(=O)(=O)O)CCC(C)(COc1ccc(CC3SC(=O)NC3=O)cc1)O2 (stereo not drawn) [troglitazone sulfate]
- IC50 (BSEP [11]): 4.2 µM

SMILES: Cc1c(C)c2c(c(C)c1O)CCC(C)(COc1ccc(CC3SC(=O)NC3=O)cc1)O2 (stereo not drawn) [troglitazone]
- IC50 (BSEP [11]): 2.3 µM
